Test results from publication PMC7780349 (Cell, 2020).
Converted amounts (≈) assume the structure as drawn. Read-outs that look alike come from different tables or passages of the source.

Tests used:
A. baumannii AB17978 [1] = test: Minimum inhibitory concentration assay
[2] = test system: B. subtilis dfrA and folC CRISPRi knockdown mutants; type: cell-based; details: growth (OD600) after 14 h relative to DMSO
E. coli lptD4213 [3] = test: Minimum inhibitory concentration assay; details: for MIC: concentration printed as 1× MIC
[4] = biological target: E. coli dihydrofolate reductase (FolA) (Escherichia coli, UniProt P0ABQ4); test: Dihydrofolate reductase activity assay; type: biochemical
S. aureus MRSA USA300 [5] = test: Minimum inhibitory concentration assay
E. coli lptD4213 [6] = test: Membrane potential and permeability assay; details: E. coli lptD4213, 15 min treatment
B. subtilis 168 = test: Minimum inhibitory concentration assay; type: cell-based
[7] = test system: S. aureus MRSA USA300 persister cells; test: S. aureus MRSA persister cell assay; type: cell-based, Staphylococcus aureus; details: 2 h treatment
S. aureus MRSA USA300 [8] = test: Serial passaging assay to evolve resistance; type: cell-based, Staphylococcus aureus; details: S. aureus MRSA USA300, 25 days, sub-lethal concentrations
[9] = test system: mammalian cells (HEK293, HK-2, HLF, PBMC)
PBMC = test: Mammalian cell cytotoxicity; type: cell-based; details: 72 hours
[10] = test system: N. gonorrhoeae ATCC 700825; test: Neisseria gonorrhea vaginal infection model; type: in vivo, BALB/c mice; details: 10 mg/kg i.v. at 2 and 14 h post-infection, CFUs at 26 h; p < 0.05 vs vehicle
[11] = Mouse liver microsomal stability; type: in vitro ADME; details: 2 μM, 0.5 mg/mL microsomes, NADPH and UDPGA, 1 hour; compared to verapamil
N. gonorrhoeae = test: Minimum inhibitory concentration assay; details: bacterial culture
[12] = Maximal tolerated dose in mice; type: in vivo; details: intravenously
E. coli lptD4213 ΔthyA = test: Growth of wild-type and ΔthyA cells with thymine; type: cell-based; details: excess thymine in the medium
E. coli NCM3722 = test: Minimum inhibitory concentration assay; type: cell-based; details: Escherichia coli
B. subtilis = test: Isolation of resistant mutants by plating; type: cell-based; details: ~10^8 CFUs
A. baumannii AB17978 [13] = test: Galleria mellonella killing assay; type: in vivo; details: lethal dose of A. baumannii AB17978; 67 μg/larva; p < 0.001
E. coli lptD4213 [14] = test: Colony forming units assay; type: cell-based; details: E. coli lptD4213, 3-h treatment, 2× MIC
[15] = test system: folate metabolite pools in E. coli NCM3722; test: Metabolomics of folate metabolite pools; type: cell-based; details: 13.9 μg/mL (1× MIC), 15 min
[16] = biological target: dihydrofolate reductase (FolA) (Escherichia coli, UniProt P0ABQ4); test: Thermal proteome profiling; type: binding; details: E. coli lptD4213 intact cells and cell lysates
P. aeruginosa = test: Minimum inhibitory concentration assay
MRSA USA300 = test: Isolation of resistant mutants by plating on drug agar; type: cell-based, Staphylococcus aureus; details: ~10^8 CFU on agar with 25 μg/mL SCH-79797 (4X MIC)
G. mellonella = test: Galleria mellonella host toxicity; type: in vivo; details: injection at four times the MIC toward A. baumannii
[17] = animals; ref Gobbetti et al., 2012; Strande et al., 2007; cited from earlier work
HEK293 = type: cell-based
HK-2 = type: cell-based
E. cloacae = test: Minimum inhibitory concentration assay
HLF = type: cell-based
A. baumannii AB17978 [18] = test: Serial passaging assay to evolve resistance; type: cell-based, Acinetobacter baumannii

E. coli dihydrofolate reductase (FolA), sequence (P0ABQ4 whole entry): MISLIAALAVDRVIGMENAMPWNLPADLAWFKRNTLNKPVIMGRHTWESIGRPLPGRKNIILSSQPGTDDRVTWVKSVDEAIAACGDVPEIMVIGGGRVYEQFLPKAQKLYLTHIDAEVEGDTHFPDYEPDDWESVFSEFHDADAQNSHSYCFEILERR
dihydrofolate reductase (FolA), sequence (P0ABQ4 whole entry): as above

Nc1nc(N)c2c(ccc3[nH]ccc32)n1 [IRS-10]
potency compared to the parent molecule SCH-79797 (A. baumannii AB17978 [1]): decreased the potency
sensitivity of dfrA and folC CRISPRi knockdowns [2]: maintains the ability to inhibit folate metabolism
potency compared to the parent molecule SCH-79797 (E. coli lptD4213 [3]): increased the potency
MIC (E. coli lptD4213 [3]): 0.4 µg/mL (≈ 2.01 µM)
IC50 ([4]; read-out: IC50 against FolA, 60 μM NADPH and 100 μM DHF, Hill fit): 0.065 ± 0.019 µM
potency compared to the parent molecule SCH-79797 (S. aureus MRSA USA300 [5]; MRSA USA300): decreased the potency
membrane potential and permeability (DiOC2(3) and TO-PRO-3 staining) (E. coli lptD4213 [6]): does not disrupt membrane polarity or permeability
potency compared to the parent molecule SCH-79797 (B. subtilis 168; B. subtilis 168): decreased the potency

daptomycin
viability of persister cells (CFU) [7]: did not reduce the number of CFUs

nisin
resistance on serial passaging (S. aureus MRSA USA300 [8]): resistance gradually increased
membrane potential and permeability (DiOC2(3) and TO-PRO-3 staining) (E. coli lptD4213 [6]): expected shifts in both DiOC2(3) and TO-PRO-3 staining

Nc1nc(N)c2c(ccc3c2ccn3Cc2ccc(-c3ccccc3)cc2)n1 [IRS-16]
sensitivity of dfrA and folC CRISPRi knockdowns [2]: hypersensitive
increase of therapeutic window relative to SCH-79797 [9]: > 100 fold
MIC against PBMC (PBMC): greater than the maximal drug concentrations tested
adverse effects (male CD-1 mice, single i.v. dose 15 mg/kg): no adverse effects
time at concentrations above the N. gonorrhoeae MIC (mice, 15 mg/kg i.v., MIC 0.03 μg/mL): ~48 h
half-life (mouse, in vivo, iv, 15 mg/kg): 15.8 h
vaginal load of N. gonorrhoeae (CFU) [10]: significantly reduced the vaginal load
MIC (E. coli lptD4213 [3]): 0.02 µg/mL (≈ 0.0547 µM)
stability in mouse liver microsomes [11]: extremely stable
membrane potential and permeability (DiOC2(3) and TO-PRO-3 staining) (E. coli lptD4213 [6]): disrupted membrane permeability and polarity
MIC (N. gonorrhoeae): 0.03 µg/mL (≈ 0.0821 µM)
maximal tolerated dose (MTD) [12]: 15 mg/kg

CO[C@@H]1[C@@H](OC(N)=O)[C@@H](O)[C@H](Oc2ccc3c(O)c(NC(=O)c4ccc(O)c(CC=C(C)C)c4)c(=O)oc3c2C)OC1(C)C [novobiocin]
resistance on serial passaging (S. aureus MRSA USA300 [8]): resistance gradually increased
membrane potential and permeability (DiOC2(3) and TO-PRO-3 staining) (E. coli lptD4213 [6]): do not shift DiOC2(3) or TO-PRO-3 staining

polymyxin B
membrane potential and permeability (DiOC2(3) and TO-PRO-3 staining) (E. coli lptD4213 [6]): expected shifts in both DiOC2(3) and TO-PRO-3 staining

COc1cc(Cc2cnc(N)nc2N)cc(OC)c1OC [trimethoprim]
sensitivity of dfrA and folC CRISPRi knockdowns [2]: hypersensitive
sensitivity of ΔthyA versus wild-type cells (E. coli lptD4213 ΔthyA): led to trimethoprim resistance
MIC (E. coli NCM3722): 0.15 µg/mL (≈ 0.517 µM)
membrane potential and permeability (DiOC2(3) and TO-PRO-3 staining) (E. coli lptD4213 [6]): no significant changes in DiOC2(3) and TO-PRO-3 staining

N#CC(C#N)=NNc1cccc(Cl)c1 [CCCP]
membrane potential and permeability (DiOC2(3) and TO-PRO-3 staining) (E. coli lptD4213 [6]): expected shifts in both DiOC2(3) and TO-PRO-3 staining

CO[C@H]1/C=C/O[C@@]2(C)Oc3c(C)c(O)c4c(O)c(c(/C=N/N5CCN(C)CC5)c(O)c4c3C2=O)NC(=O)/C(C)=C\C=C\[C@H](C)[C@H](O)[C@@H](C)[C@@H](O)[C@@H](C)[C@H](OC(C)=O)[C@@H]1C [rifampicin]
membrane potential and permeability (DiOC2(3) and TO-PRO-3 staining) (E. coli lptD4213 [6]): do not shift DiOC2(3) or TO-PRO-3 staining

CC(C)c1ccc(Cn2ccc3c4c(N)nc(NC5CC5)nc4ccc32)cc1 [SCH-79797, N3-cyclopropyl-7-[[4-(1-methylethyl)phenyl]methyl]-7H-pyrrolo[3,2-f]quinazoline-1,3-diamine]
isolation of resistant mutants on plating (B. subtilis): unable to isolate SCH-79797-resistant mutants
survival of infected larvae (A. baumannii AB17978 [13]): significantly prolonged the survival
bactericidal activity (CFU) (E. coli lptD4213 [14]): potent and rapid bactericidal activity
sensitivity of dfrA and folC CRISPRi knockdowns [2]: sensitized
rise of 7,8-dihydrofolate (DHF) level compared to untreated cells [15]: ~ 10 fold
sensitivity of ΔthyA versus wild-type cells (E. coli lptD4213 ΔthyA): no change in sensitivity
thermal stability of dihydrofolate reductase (FolA) [16]: significantly shifted the thermal stability
MIC (P. aeruginosa): greater the maximal drug concentrations tested
isolation of resistant mutants on plating (MRSA USA300): unable to isolate stable SCH-79797-resistant mutants
viability of persister cells (CFU) [7]: robustly killed these persister cells
host toxicity (G. mellonella): did not result in higher host toxicity than the solvent-only control
resistance on serial passaging (S. aureus MRSA USA300 [8]): no SCH-79797-resistant mutants emerged
IC50 [4]: 8.6 ± 3 µM
MIC (S. aureus MRSA USA300 [5]; Staphylococcus aureus, MRSA|USA300): 6.3 µg/mL (≈ 17 µM)
safely tolerated dose [17]: at least 5 mg/kg
MIC (E. coli NCM3722): 13.9 µg/mL (≈ 37.4 µM)
growth inhibition of mammalian cells relative to antibacterial dose (HEK293): at doses comparable to the doses needed to kill bacteria
membrane potential and permeability (DiOC2(3) and TO-PRO-3 staining) (E. coli lptD4213 [6]): significant defects in both membrane polarization and permeability
growth inhibition of mammalian cells relative to antibacterial dose (HK-2): at doses comparable to the doses needed to kill bacteria
MIC (E. cloacae): greater the maximal drug concentrations tested
MIC (B. subtilis 168; Bacillus subtilis, 168): 3.1 µg/mL (≈ 8.34 µM)
growth inhibition of mammalian cells relative to antibacterial dose (HLF): at doses comparable to the doses needed to kill bacteria
resistance on serial passaging (A. baumannii AB17978 [18]): resistance remained constant

CC(C)c1ccccc1 [isopropylbenzene]
sensitivity of dfrA and folC CRISPRi knockdowns [2]: no effect
membrane potential and permeability (DiOC2(3) and TO-PRO-3 staining) (E. coli lptD4213 [6]): disrupts both membrane polarity and permeability
